Data taken from ChEMBL document CHEMBL4765292, “Flexible diaminodihydrotriazine inhibitors of Plasmodium falciparum dihydrofolate reductase: Binding strengths, modes of binding and their antimalarial activities” (Eur J Med Chem, 2020).

Tests used:
[1] = Inhibition of Plasmodium falciparum DHFR expressed in Escherichia coli BL21 using DHF as substrate by spectrophotometric analysis
[2] = Inhibition of Plasmodium falciparum DHFR A16V/S108T mutant expressed in Escherichia coli BL21 using DHF as substrate by spectrophotometric analysis
[3] = Inhibition of Plasmodium falciparum DHFR […] mutant expressed in Escherichia coli BL21 using DHF as substrate by spectrophotometric analysis
[4] = Inhibition of Plasmodium falciparum DHFR N51I/C59R/S108N mutant expressed in Escherichia coli BL21 using DHF as substrate by spectrophotometric analysis
[5] = Inhibition of Plasmodium falciparum DHFR C59R/S108N/I164L mutant expressed in Escherichia coli BL21 using DHF as substrate by spectrophotometric analysis
[6] = Inhibition of Plasmodium falciparum DHFR N51I/C59R/S108N/I164L mutant expressed in Escherichia coli BL21 using DHF as substrate by spectrophotometric analysis
[7] = system: Plasmodium falciparum; experiment: Antimalarial activity against Plasmodium falciparum TM4/8.2 infected in human erythrocytes assessed as reduction in [3H]-hypoxanthine incorporation pretreated for 20 hrs followed by [3H]-hypoxanthine addition measured after 20 hrs by radioactivity method; format: functional, organism-based
[8] = system: Plasmodium falciparum; experiment: Antimalarial activity against Plasmodium falciparum K1CB1 harboring DHFR […] mutant infected in human erythrocytes assessed as reduction in [3H]-hypoxanthine incorporation pretreated for 20 hrs followed by [3H]-hypoxanthine addition measured after 20 hrs by radioactivity method; format: functional, organism-based; conditions: K1CB1, Erythrocyte
[9] = system: Plasmodium falciparum; experiment: Antimalarial activity against Plasmodium falciparum W2 harboring DHFR N51I/C59R/S108N mutant infected in human erythrocytes assessed as reduction in [3H]-hypoxanthine incorporation pretreated for 20 hrs followed by [3H]-hypoxanthine addition measured after 20 hrs by radioactivity method; format: functional, organism-based; conditions: W2, Erythrocyte
[10] = system: Plasmodium falciparum; experiment: Antimalarial activity against Plasmodium falciparum CsI-2 harboring DHFR C59R/S108N/I164L mutant infected in human erythrocytes assessed as reduction in [3H]-hypoxanthine incorporation pretreated for 20 hrs followed by [3H]-hypoxanthine addition measured after 20 hrs by radioactivity method; format: functional, organism-based; conditions: CsI-2, Erythrocyte
[11] = system: Plasmodium falciparum; experiment: Antimalarial activity against Plasmodium falciparum V1/S harboring DHFR N51I/C59R/S108N/I164L mutant infected in human erythrocytes assessed as reduction in [3H]-hypoxanthine incorporation pretreated for 20 hrs followed by [3H]-hypoxanthine addition measured after 20 hrs by radioactivity method; format: functional, organism-based; conditions: Erythrocyte
[12] = system: Plasmodium falciparum; experiment: Antimalarial activity against Plasmodium falciparum T9/94 RC17 harboring DHFR A16V/S108T mutant infected in human erythrocytes assessed as reduction in [3H]-hypoxanthine incorporation pretreated for 20 hrs followed by [3H]-hypoxanthine addition measured after 20 hrs by radioactivity method; format: functional, organism-based; conditions: T9/94 RC17, Erythrocyte

Row | SMILES | Ki [1] [nM] | Ki [2] [nM] | Ki [3] [nM] | Ki [4] [nM] | Ki [5] [nM] | Ki [6] [nM] | IC50 [7] [nM] | IC50 [8] [nM] | IC50 [9] [nM] | IC50 [10] [nM] | IC50 [11] [nM] | IC50 [12] [nM]
1 | CC1(C)N=C(N)N=C(N)N1OCCCCOCc1ccccc1 | 1 | 10.5 | 2.5 | 2.9 | 12.2 | 18.2 | 400 | 2400 | 3200 | 4800 | 20800 | 
2 | CC1(C)N=C(N)N=C(N)N1OCCCNS(=O)(=O)c1ccccc1 | 0.8 | 61 | 4.3 | 10 | 51 | 184 | 51 | 5400 | 15200 | 73400 | 61900 | 2200
3 | CC1(C)N=C(N)N=C(N)N1OCCCSC1CCCCC1 | 0.6 | 3 | 1.1 | 0.8 | 1.5 | 1.4 | 3.3 | 260 | 190 | 260 | 3500 | 6.9
4 | Cc1ccc(S(=O)(=O)NCCCON2C(N)=NC(N)=NC2(C)C)cc1 | 1 | 186 | 4 | 7.5 | 73 | 143 | 440 | 9600 | 15100 | 31200 | 23500 | 3900
5 | CC1(C)N=C(N)N=C(N)N1OCCCOCc1ccccc1 | 0.6 | 5.3 | 1.3 | 1.2 | 4.2 | 4.1 | 14 | 48 | 51 | 400 | 1210 | 
6 | CC1(C)N=C(N)N=C(N)N1OCCCN(Cc1ccccc1)c1ccc(Cl)cc1 | 0.6 | 6.1 | 0.8 | 1.1 | 2.3 | 2 | 31 | 400 | 510 | 3100 | 3600 | 49
7 | CC1(C)N=C(N)N=C(N)N1OCC(=O)NCc1ccc(Cl)cc1 | 1.7 | 72.2 | 3.6 | 4.3 | 13 | 16.3 | 2400 | 530 | 2500 | 3600 | 11000 | 430
8 | CC1(C)N=C(N)N=C(N)N1OCCNS(=O)(=O)c1ccc(Cl)cc1 | 1.3 | 133 | 4.7 | 10.2 | 114 | 127 | 1200 | 5900 | 12700 | 25300 | > 50000 | 3800
9 | Cc1ccc(S(=O)(=O)NCCON2C(N)=NC(N)=NC2(C)C)cc1 | 1.8 | 308 | 6.4 | 10.2 | 139 | 229 | 2000 | 9700 | 21500 | 63300 | 62200 | 18700
10 | NC1=NC(c2ccccc2)N(OCCc2ccccc2)C(N)=N1 (centres undefined) | 1.4 | 8.3 | 3.3 | 4.1 | 13 | 14 | 80 | 16200 | 16800 | 20500 | 24700 | 3.1
11 | CC1(C)N=C(N)N=C(N)N1OCCNS(=O)(=O)c1ccc([N+](=O)[O-])cc1 | 3.2 | 222 | 9.85 | 17.9 | 229 | 235 | 2200 | 3100 | 3600 | 3500 | 3500 | 3500
12 | CC1(C)N=C(N)N=C(N)N1OCCNS(=O)(=O)c1ccccc1 | 2.7 | 215 | 4.8 | 5.8 | 169 | 234 | 4400 | 10000 | 26000 | 76500 | 77400 | 15000
13 | CC1(C)N=C(N)N=C(N)N1OCCCNC(=O)c1ccccc1 | 1.4 | 14.7 | 2.6 | 2.6 | 6.9 | 13.8 | 29 | 230 | 230 | 2400 | 5400 | 40
14 | CC1(C)N=C(N)N=C(N)N1OCC(=O)Nc1ccccc1 | 3.7 | 131 | 5.2 | 6.7 | 16.4 | 17.8 | 1900 | 7200 | 13900 | 17100 | 18100 | 5200
15 | CC1(C)N=C(N)N=C(N)N1OCCCNc1ccccc1 | 0.6 | 5.7 | 0.8 | 1.1 | 1.8 | 4.8 | 1850 | 240 | 300 | 3200 | 2300 | 
16 | CC1(C)N=C(N)N=C(N)N1OCCCN(Cc1ccccc1)c1ccc(Cl)c(Cl)c1 | 1 | 5.3 | 1.6 | 1.2 | 2.7 | 1.7 | 150 | 2300 | 2100 | 5000 | 5300 | 290
17 | CC1(C)N=C(N)N=C(N)N1OCCOc1cc(Cl)c(Cl)cc1Cl | 1 | 6.1 | 1.2 | 2.2 | 11 | 16 | 750 | 490 | 3010 | 3300 | 11500 | 
18 | CC1(C)N=C(N)N=C(N)N1OCc1ccccc1 | 0.4 | 46 | 2.8 | 5.9 | 30 | 45 | 2670 | 1800 | 4500 | 47600 | > 100000 | 
19 | NC1=NC(c2ccccc2)N(CCCOc2cc(Cl)c(Cl)cc2Cl)C(N)=N1 (centres undefined) | 1.2 | 7.3 | 2.1 | 2.6 | 5.6 | 5.7 | 750 | 2900 | 2300 | 3100 | 2600 | 18
20 | NC1=NC(c2ccccc2)N(OCCCc2ccccc2)C(N)=N1 (centres undefined) | 2.2 | 7 | 0.9 | 0.6 | 3.2 | 3.6 | 20 | 190 | 130 | 4500 | 4800 | 0.52
21 | CC1(C)N=C(N)N=C(N)N1OCC(=O)Nc1ccc(Cl)cc1 | 2.3 | 56.8 | 3.8 | 4 | 8.8 | 9.7 | 3000 | 4000 | 3700 | 7900 | 16700 | 5000
22 | CC1(C)N=C(N)N=C(N)N1OCCCN(Cc1ccccc1)Cc1ccccc1 | 1.5 | 6.3 | 2.9 | 3.1 | 3.1 | 5.4 | 22 | 350 | 500 | 500 | 5400 | 25
23 | NC1=NC(c2ccccc2)N(OCCCOc2ccc(Cl)cc2)C(N)=N1 (centres undefined) | 0.4 | 1.6 | 1.1 | 0.8 | 0.8 | 0.5 | 12 | 85 | 100 | 720 | 2300 | 0.58
24 | CCN(CCCON1C(N)=NC(N)=NC1(C)C)c1ccc(Cl)c(Cl)c1 | 1.4 | 2.8 | 2.1 | 2 | 2.2 | 3.9 | 26 | 35 | 71 | 46 | 2900 | 
25 | CC1(C)N=C(N)N=C(N)N1c1ccc(Cl)cc1 [CYCLOGUANIL] | 1.5 | 1310 | 43.2 | 31.4 | 285 | 421 | 37 | 2400 | 6080 | 37900 | > 100000 | 3700
